Laboratory results reported in article PMC8242589, “Cardiac Safety of Kinase Inhibitors – Improving Understanding and Prediction of Liabilities in Drug Discovery Using Human Stem Cell-Derived Models” (Frontiers in Cardiovascular Medicine, 2021).
Where two headings read alike, the source gives them in different places. Blank lines part the entries; values can stand above or below the compound they belong to.

Legend:
[1] = test system: hSC-CMs (Cor.4U Cardiomyocytes); test: CardioExcyte 96 impedance and EFP recording (beating rate, base impedance); type: cell-based, human; conditions: for activity at 0.03 µM / activity at 0.1 µM / activity at 0.3 µM / activity at 1 µM / activity at 3 µM / activity at 30 µM: Homo sapiens, Cardiomyocyte, vs baseline before drug (taken as 100%)
In short: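 hSC-CM monolayers (Cor.4U), cultured 4 days at 37 °C, 5% CO2, recorded spontaneously beating; impedance sampled at 1 kHz, EFP at 10 kHz. Beating rate taken as reciprocal of inter-spike interval in EFP. Each test concentration expressed as fractional change versus pre-drug baseline (100%).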

[2] = test system: hSC-CMs (Cor.4U Cardiomyocytes); test: Apoptosis assay (CellEvent Caspase-3/7 Green, IncuCyte ZOOM kinetics over 24 h); type: cell-based, human; parameters: key to Caspase / Caspase MEAN: % of time-matched vehicle control (green object area); conditions: for activity at 0.03 µM / activity at 0.1 µM / activity at 0.3 µM / activity at 1 µM / activity at 3 µM / activity at 30 µM: Homo sapiens, Cardiomyocyte, normalized to time-matched vehicle control
In short: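 Cor.4U cardiomyocytes were cultured 4 days at 5% CO2 and 37 °C, given a 2 h baseline, then treated with compound for 24 h. Caspase-3/7 green nuclear signal was imaged every 2 h, and total green object area per well (μm^2/well) was normalized to the time-matched vehicle control. At least three replicates were run per concentration.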

[3] = test system: hSC-CMs (Cor.4U Cardiomyocytes); test: ATP assay (CellTiter-Glo Luminescent Cell Viability Assay); type: cell-based, human; conditions: for viability at 0.03 µM / viability at 0.1 µM / viability at 0.3 µM / viability at 1 µM / viability at 3 µM / viability at 30 µM: Homo sapiens, Cardiomyocyte, normalized to time-matched DMSO control; for Effect on ATP level, in words: up to the highest test concentrations
In short: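 Human stem-cell-derived Cor.4U cardiomyocytes (25,000–30,000/well), cultured 4 days at 37 °C, switched to serum-free BMCC medium 12 h before dosing. Cellular ATP quantified by CellTiter-Glo luminescence and normalized to time-matched DMSO controls; at least three replicates per concentration.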

[4] = test system: GSK-3α; conditions: ref [46] (CHIR99021), [47] (SB 216763); read-out: Target IC50 GSK-3α; cited from earlier work
[5] = test system: GSK-3β; conditions: ref [46] (CHIR99021), [48] (TWS119); read-out: Target IC50 GSK-3β; cited from earlier work
[6] = test system: PI3K p110β; conditions: ref [23]–[25] (NVP-BEZ235), [27] (LY 294002), [28] (GDC-0941), [32] (TGX-221), [33] (CAL-101), [35] (CZC24832); read-out: Target IC50 p110β; cited from earlier work
[7] = test system: PI3K p110δ; conditions: ref [23]–[25] (NVP-BEZ235), [27] (LY 294002), [28] (GDC-0941), [33] (CAL-101); read-out: Target IC50 p110δ; cited from earlier work

Effect on cardiomyocyte function in 3D surface plots (beating rate, base impedance, ATP), in words ([1]; hSC-CMs, 2 and 24 h): minimal functional effect
SMILES: Cn1cc(C2=C(c3ccc(Cl)cc3Cl)C(=O)NC2=O)c2ccccc21 [SB 216763]
activity at 0.03 µM ([1]; 2h, read-out: BR): 98%
activity at 0.03 µM ([1]; 2h, read-out: Base Imp): 109%
activity at 0.03 µM ([1]; 24h, read-out: BR): 91%
activity at 0.03 µM ([1]; 24h, read-out: Base Imp): 108%
activity at 0.1 µM ([1]; 0.1 µM, 2h, read-out: BR): 88%
activity at 0.1 µM ([1]; 0.1 µM, 2h, read-out: Base Imp): 107%
activity at 0.1 µM ([1]; 0.1 µM, 24h, read-out: BR): 94%
activity at 0.1 µM ([1]; 0.1 µM, 24h, read-out: Base Imp): 107%
activity at 0.3 µM ([1]; 2h, read-out: BR): 97%
activity at 0.3 µM ([1]; 2h, read-out: Base Imp): 106%
activity at 0.3 µM ([1]; 24h, read-out: BR): 94%
activity at 0.3 µM ([1]; 24h, read-out: Base Imp): 102%
activity at 1 µM ([1]; 1 µM, 2h, read-out: BR): 85%
activity at 1 µM ([1]; 1 µM, 2h, read-out: Base Imp): 102%
activity at 1 µM ([1]; 1 µM, 24h, read-out: BR): 93%
activity at 1 µM ([1]; 1 µM, 24h, read-out: Base Imp): 105%
Effect on hSC-CMs function (base impedance and beating rate), in words ([1]; hSC-CMs, 2 and 24 h): did not produce functionally relevant changes
activity at 0.03 µM ([2]; 2h): 143%
activity at 0.03 µM ([2]; 24h): 92%
activity at 0.1 µM ([2]; 0.1 µM, 2h): 174%
activity at 0.1 µM ([2]; 0.1 µM, 24h): 132%
activity at 0.3 µM ([2]; 2h): 256%
activity at 0.3 µM ([2]; 24h): 265%
activity at 1 µM ([2]; 1 µM, 2h): 326%
activity at 1 µM ([2]; 1 µM, 24h): 352%
Time to plateau of caspase-3/7 activation ([2]; hSC-CMs): within the first hour
Apoptosis (caspase-3/7 activation), result in words ([2]; hSC-CMs, monitored over 24 h): quickly induced a concentration-dependent caspase−3/7 activation
viability at 0.03 µM ([3]; 2h): 88%
viability at 0.03 µM ([3]; 24h): 98%
viability at 0.1 µM ([3]; 0.1 µM, 2h): 88%
viability at 0.1 µM ([3]; 0.1 µM, 24h): 99%
viability at 0.3 µM ([3]; 2h): 91%
viability at 0.3 µM ([3]; 24h): 95%
viability at 1 µM ([3]; 1 µM, 2h): 97%
viability at 1 µM ([3]; 1 µM, 24h): 96%
Effect on ATP level, in words ([3]; hSC-CMs): did not impact the ATP level
IC50 [4]: 34 nM

SMILES: Nc1cccc(-c2cc3c(Oc4cccc(O)c4)ncnc3[nH]2)c1 [TWS119]
Effect on cardiomyocyte function in 3D surface plots (beating rate, base impedance, ATP), in words [1]: minimal functional effect
Effect on hSC-CMs function (base impedance and beating rate), in words [1]: did not produce functionally relevant changes
BR ([1]; 2h, 0.01 µM): 107
Base Imp ([1]; 2h, 0.01 µM): 90
BR ([1]; 2h, 0.1 µM): 102
Base Imp ([1]; 2h, 0.1 µM): 86
BR ([1]; 2h, 1 µM): 103
Base Imp ([1]; 2h, 1 µM): 91
BR ([1]; 2h, 10 µM): 103
Base Imp ([1]; 2h, 10 µM): 90
BR ([1]; 24h, 0.01 µM): 107
Base Imp ([1]; 24h, 0.01 µM): 86
BR ([1]; 24h, 0.1 µM): 105
Base Imp ([1]; 24h, 0.1 µM): 91
BR ([1]; 24h, 1 µM): 104
Base Imp ([1]; 24h, 1 µM): 88
BR ([1]; 24h, 10 µM): 99
Base Imp ([1]; 24h, 10 µM): 84
Caspase ([2]; 2h, 0.01 µM): 142
Caspase ([2]; 2h, 0.1 µM): 127
Caspase ([2]; 2h, 1 µM): 127
Caspase ([2]; 2h, 10 µM): 105
Caspase ([2]; 24h, 0.01 µM): 137
Caspase ([2]; 24h, 0.1 µM): 114
Caspase ([2]; 24h, 1 µM): 96
Caspase ([2]; 24h, 10 µM): 113
Apoptosis (caspase-3/7 activation), result in words ([2]; hSC-CMs, monitored over 24 h): did not have any functionally-relevant effect
ATP ([3]; 2h, 0.01 µM): 94
ATP ([3]; 2h, 0.1 µM): 98
ATP ([3]; 2h, 1 µM): 98
ATP ([3]; 2h, 10 µM): 96
ATP ([3]; 24h, 0.01 µM): 102
ATP ([3]; 24h, 0.1 µM): 98
ATP ([3]; 24h, 1 µM): 98
ATP ([3]; 24h, 10 µM): 104
Effect on ATP level, in words ([3]; hSC-CMs): did not impact the ATP level
IC50 [5]: 30 nM

Effect on cardiomyocyte function in 3D surface plots (beating rate, base impedance, ATP), in words ([1]; hSC-CMs, 2 and 24 h): pronounced effects
SMILES: O=c1cc(N2CCOCC2)oc2c(-c3ccccc3)cccc12 [LY 294002]
activity at 0.03 µM ([1]; 2h, read-out: BR): 112%
activity at 0.03 µM ([1]; 2h, read-out: Base Imp): 72%
activity at 0.03 µM ([1]; 24h, read-out: BR): 111%
activity at 0.03 µM ([1]; 24h, read-out: Base Imp): 72%
activity at 0.3 µM ([1]; 2h, read-out: BR): 109%
activity at 0.3 µM ([1]; 2h, read-out: Base Imp): 71%
activity at 0.3 µM ([1]; 24h, read-out: BR): 94%
activity at 0.3 µM ([1]; 24h, read-out: Base Imp): 75%
activity at 3 µM ([1]; 2h, read-out: BR): 94%
activity at 3 µM ([1]; 2h, read-out: Base Imp): 70%
activity at 3 µM ([1]; 24h, read-out: BR): 63%
activity at 3 µM ([1]; 24h, read-out: Base Imp): 59%
activity at 30 µM ([1]; 2h, read-out: BR): 0%
activity at 30 µM ([1]; 2h, read-out: Base Imp): 50%
activity at 30 µM ([1]; 24h, read-out: BR): 0%
activity at 30 µM ([1]; 24h, read-out: Base Imp): 33%
Reduction of base impedance ([1]; hSC-CMs, 2 and 24 h): more than 20%
Reduction of beating rate ([1]; hSC-CMs, 2 and 24 h): more than 20%
activity at 0.03 µM ([2]; 2h): 194%
activity at 0.03 µM ([2]; 24h): 95%
activity at 0.3 µM ([2]; 2h): 130%
activity at 0.3 µM ([2]; 24h): 93%
activity at 3 µM ([2]; 2h): 110%
activity at 3 µM ([2]; 24h): 217%
activity at 30 µM ([2]; 2h): 62%
activity at 30 µM ([2]; 24h): 428%
Apoptosis (caspase-3/7 activation), result in words ([2]; hSC-CMs, monitored over 24 h): induced apoptosis in hSC-CMs with a fast onset
Time to reach the maximum number of apoptotic cells ([2]; hSC-CMs, monitored over 24 h): ≤ 12 h
viability at 0.03 µM ([3]; 2h): 89%
viability at 0.03 µM ([3]; 24h): 95%
viability at 0.3 µM ([3]; 2h): 85%
viability at 0.3 µM ([3]; 24h): 91%
viability at 3 µM ([3]; 2h): 90%
viability at 3 µM ([3]; 24h): 78%
viability at 30 µM ([3]; 2h): 103%
viability at 30 µM ([3]; 24h): 86%
Decrease of ATP level ([3]; hSC-CMs, after 24 h of incubation): 20–25%
